Experimental data: ChEMBL document CHEMBL1201862, “PubChem BioAssay data set” (2004)
Active and inactive are the calls of the source.

Tests used:
Cytochrome P450 2D6 = Cytochrome P450 2D6 (Homo sapiens, UniProt P10635);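 note: CYP2D6 member of a cytochrome P450 panel assay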
[1] = molecular target: T1, Corticotropin-releasing factor receptor 2/Corticotropin-releasing factor-binding protein (Homo sapiens, UniProt P24387+Q13324); assay: activators of CRF receptor 2 with binding protein – uHTS hits, confirmation (AID 602473); type: functional; conditions: read-out: EC50_Mean
T1 sequence (Q13324 whole entry): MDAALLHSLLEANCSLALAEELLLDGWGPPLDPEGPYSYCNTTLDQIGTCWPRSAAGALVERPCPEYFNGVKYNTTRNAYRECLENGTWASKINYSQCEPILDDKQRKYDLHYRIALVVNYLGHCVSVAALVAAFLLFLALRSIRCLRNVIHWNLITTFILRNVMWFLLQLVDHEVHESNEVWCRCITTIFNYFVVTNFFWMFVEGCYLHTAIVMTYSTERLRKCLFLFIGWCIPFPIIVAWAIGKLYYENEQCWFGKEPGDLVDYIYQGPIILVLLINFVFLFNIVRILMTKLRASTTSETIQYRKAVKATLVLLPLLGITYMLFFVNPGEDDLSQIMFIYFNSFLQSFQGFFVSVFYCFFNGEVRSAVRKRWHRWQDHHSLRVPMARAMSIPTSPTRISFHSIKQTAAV
T1 sequence (P24387 whole entry): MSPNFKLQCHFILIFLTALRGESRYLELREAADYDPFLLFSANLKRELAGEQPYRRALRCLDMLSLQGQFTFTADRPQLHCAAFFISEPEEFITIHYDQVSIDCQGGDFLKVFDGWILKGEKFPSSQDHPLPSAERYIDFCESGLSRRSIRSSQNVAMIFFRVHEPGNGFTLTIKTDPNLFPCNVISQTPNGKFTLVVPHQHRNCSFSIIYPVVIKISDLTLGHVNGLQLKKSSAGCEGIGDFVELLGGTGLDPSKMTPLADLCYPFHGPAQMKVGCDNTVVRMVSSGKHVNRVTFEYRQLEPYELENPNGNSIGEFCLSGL

[2] = molecular target: T1, Corticotropin-releasing factor receptor 2/Corticotropin-releasing factor-binding protein; assay: Dose Response confirmation of uHTS hits for small molecule antagonists of the CRF-binding protein and CRF-R2 receptor complex.; type: functional; conditions: read-out: IC50_Mean
Streptococcus = assay: GAS UMAA2166 growth inhibition – luminescence, BacTiterGlo, counter-screen for streptokinase expression inhibitor project, dose response (AID 1915); type: functional, organism-based;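 note: potency for reduction of bacterial viability or growth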
[3] = tested on: Streptococcus sp. 'group A'; assay: Streptococcus pyogenes SK(-)GAS viability under kanamycin – luminescence, BacTiterGlo, confirmation, counter-screen for streptokinase expression inhibitor project, dose response (AID 1900); type: functional, organism-based
cells = type: functional
Cytochrome P450 2C19 = Cytochrome P450 2C19 (Homo sapiens, UniProt P33261); assay: Cytochrome panel assay with activity outcomes. Panel member name: p450-cyp2c19 Compounds with AC50 equal or less than 10 uM are considered active; type: functional; conditions: read-out: AC50
Chain of Cytochrome P450 2C19 (P33261 whole entry): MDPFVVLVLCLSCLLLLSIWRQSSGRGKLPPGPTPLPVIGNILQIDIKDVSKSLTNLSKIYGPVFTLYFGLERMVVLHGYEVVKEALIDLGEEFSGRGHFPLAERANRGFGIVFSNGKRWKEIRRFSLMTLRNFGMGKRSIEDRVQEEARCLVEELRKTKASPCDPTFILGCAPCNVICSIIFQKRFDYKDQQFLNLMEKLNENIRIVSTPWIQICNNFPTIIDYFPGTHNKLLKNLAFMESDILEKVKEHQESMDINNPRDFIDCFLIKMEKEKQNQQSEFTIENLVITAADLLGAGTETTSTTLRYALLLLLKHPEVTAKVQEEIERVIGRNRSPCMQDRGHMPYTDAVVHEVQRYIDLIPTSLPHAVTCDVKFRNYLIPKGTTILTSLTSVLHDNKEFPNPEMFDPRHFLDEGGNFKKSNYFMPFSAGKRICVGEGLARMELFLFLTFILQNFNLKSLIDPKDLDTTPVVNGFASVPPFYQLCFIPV

Cytochrome P450 1A2 = molecular target: T2, Cytochrome P450 1A2 (Homo sapiens, UniProt P05177);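 note: PubChem cytochrome P450 panel assay, CYP1A2 panel member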
T2 sequence (P05177 whole entry): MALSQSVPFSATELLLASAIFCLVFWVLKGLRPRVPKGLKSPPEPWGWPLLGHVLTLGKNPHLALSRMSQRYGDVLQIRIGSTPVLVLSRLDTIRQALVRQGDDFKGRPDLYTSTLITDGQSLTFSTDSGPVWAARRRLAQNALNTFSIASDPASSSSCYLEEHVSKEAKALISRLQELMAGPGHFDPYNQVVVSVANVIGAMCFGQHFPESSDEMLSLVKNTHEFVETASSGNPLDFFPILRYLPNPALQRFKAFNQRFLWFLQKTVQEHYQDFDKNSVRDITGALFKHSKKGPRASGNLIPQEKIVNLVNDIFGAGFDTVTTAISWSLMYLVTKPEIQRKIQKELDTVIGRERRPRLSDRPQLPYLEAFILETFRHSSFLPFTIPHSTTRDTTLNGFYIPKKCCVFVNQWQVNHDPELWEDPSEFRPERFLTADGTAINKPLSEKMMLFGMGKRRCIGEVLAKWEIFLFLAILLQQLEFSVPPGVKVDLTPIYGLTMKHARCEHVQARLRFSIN

Cytochrome P450 2C9 = Cytochrome P450 2C9 (Homo sapiens, UniProt P11712)
Chain of Cytochrome P450 2C9 (P11712 whole entry): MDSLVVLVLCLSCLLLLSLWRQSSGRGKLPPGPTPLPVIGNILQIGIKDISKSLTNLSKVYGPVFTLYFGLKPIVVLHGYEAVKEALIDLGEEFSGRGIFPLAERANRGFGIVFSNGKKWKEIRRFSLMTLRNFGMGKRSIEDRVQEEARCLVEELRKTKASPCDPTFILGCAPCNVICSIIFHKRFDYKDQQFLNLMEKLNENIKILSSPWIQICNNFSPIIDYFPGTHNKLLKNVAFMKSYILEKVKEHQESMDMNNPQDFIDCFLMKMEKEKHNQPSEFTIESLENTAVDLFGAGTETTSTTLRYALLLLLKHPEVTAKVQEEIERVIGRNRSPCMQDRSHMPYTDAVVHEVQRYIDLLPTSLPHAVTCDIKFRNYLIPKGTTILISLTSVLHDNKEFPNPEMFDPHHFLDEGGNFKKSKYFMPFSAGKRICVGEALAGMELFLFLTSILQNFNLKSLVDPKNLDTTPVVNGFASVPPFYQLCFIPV

Cytochrome P450 3A4 = Cytochrome P450 3A4 (Homo sapiens, UniProt P08684);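 note: CYP3A4 tested as one member of a cytochrome P450 panel screen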
Chain of Cytochrome P450 3A4 (P08684 whole entry): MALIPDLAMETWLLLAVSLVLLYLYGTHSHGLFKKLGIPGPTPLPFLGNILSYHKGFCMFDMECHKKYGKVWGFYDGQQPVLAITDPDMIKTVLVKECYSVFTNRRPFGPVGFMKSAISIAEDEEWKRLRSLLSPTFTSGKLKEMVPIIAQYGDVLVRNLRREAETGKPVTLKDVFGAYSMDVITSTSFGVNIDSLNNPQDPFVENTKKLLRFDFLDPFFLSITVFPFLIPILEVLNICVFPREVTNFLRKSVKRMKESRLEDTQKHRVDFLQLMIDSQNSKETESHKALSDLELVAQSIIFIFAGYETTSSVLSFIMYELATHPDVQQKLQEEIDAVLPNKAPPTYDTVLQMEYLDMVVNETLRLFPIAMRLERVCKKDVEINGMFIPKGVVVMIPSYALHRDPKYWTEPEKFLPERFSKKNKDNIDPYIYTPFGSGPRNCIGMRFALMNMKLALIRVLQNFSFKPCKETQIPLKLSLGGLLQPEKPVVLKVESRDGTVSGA

[4] = molecular target: T3, Replicative DNA helicase DnaB (Mycobacterium tuberculosis, UniProt P9WMR3); assay: DnaB intein splicing inhibitors, dose response, biochemical, cell-free fluorescence (AID 449749); type: functional
T3 sequence (P9WMR3 whole entry): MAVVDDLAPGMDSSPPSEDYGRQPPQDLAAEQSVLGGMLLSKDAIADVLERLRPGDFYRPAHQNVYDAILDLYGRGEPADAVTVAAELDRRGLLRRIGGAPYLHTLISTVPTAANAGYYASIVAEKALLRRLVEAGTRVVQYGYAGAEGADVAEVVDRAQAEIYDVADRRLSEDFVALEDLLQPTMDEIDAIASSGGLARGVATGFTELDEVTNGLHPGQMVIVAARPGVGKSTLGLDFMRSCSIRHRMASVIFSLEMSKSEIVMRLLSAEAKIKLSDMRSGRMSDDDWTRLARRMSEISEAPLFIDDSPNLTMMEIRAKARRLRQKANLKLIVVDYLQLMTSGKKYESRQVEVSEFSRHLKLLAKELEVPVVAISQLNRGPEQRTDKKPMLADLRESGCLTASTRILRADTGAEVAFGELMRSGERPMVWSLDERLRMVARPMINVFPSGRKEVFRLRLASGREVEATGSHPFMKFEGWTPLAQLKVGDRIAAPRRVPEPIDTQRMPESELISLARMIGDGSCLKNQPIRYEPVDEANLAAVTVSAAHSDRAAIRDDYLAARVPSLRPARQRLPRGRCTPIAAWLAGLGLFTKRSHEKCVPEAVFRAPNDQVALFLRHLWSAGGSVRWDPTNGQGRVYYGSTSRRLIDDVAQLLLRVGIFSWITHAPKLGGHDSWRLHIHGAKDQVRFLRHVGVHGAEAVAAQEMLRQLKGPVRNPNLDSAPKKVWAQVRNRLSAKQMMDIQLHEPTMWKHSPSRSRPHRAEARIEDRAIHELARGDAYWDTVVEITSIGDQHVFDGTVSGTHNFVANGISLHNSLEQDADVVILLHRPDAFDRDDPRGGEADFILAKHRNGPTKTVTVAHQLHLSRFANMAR

Protein RecA = molecular target: T4, Protein RecA (Mycobacterium tuberculosis, UniProt P9WHJ3); assay: Fluorescence Cell-Free Homogeneous Dose Retest to Identify Inhibitors of RecA-Intein Splicing Activity. [Related pubchem assays (depositor defined):AID2097, AID2223, AID489010, AID492950]; type: functional
T4 sequence (P9WHJ3 whole entry): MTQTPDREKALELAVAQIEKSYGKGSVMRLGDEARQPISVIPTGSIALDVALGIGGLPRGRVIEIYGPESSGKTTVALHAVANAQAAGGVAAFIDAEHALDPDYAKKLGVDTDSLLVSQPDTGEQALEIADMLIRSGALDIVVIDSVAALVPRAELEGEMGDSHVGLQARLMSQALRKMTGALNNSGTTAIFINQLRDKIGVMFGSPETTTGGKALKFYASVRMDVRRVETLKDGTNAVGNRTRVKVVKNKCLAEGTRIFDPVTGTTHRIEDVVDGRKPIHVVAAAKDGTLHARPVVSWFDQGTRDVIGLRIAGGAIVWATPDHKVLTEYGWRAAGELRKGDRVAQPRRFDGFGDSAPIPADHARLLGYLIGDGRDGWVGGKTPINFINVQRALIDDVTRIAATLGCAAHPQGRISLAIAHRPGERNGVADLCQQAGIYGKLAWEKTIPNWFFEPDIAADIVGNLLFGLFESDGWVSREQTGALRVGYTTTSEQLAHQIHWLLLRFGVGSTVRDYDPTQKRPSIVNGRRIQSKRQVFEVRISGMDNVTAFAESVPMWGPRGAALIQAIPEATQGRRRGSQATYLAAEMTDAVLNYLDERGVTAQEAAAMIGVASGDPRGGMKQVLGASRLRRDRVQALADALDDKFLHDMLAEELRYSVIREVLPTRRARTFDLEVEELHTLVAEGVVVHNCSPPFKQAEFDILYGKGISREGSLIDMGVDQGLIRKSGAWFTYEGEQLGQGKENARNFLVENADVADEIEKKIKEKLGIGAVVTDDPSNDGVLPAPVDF

Chain of Cytochrome P450 2D6 (P10635 whole entry): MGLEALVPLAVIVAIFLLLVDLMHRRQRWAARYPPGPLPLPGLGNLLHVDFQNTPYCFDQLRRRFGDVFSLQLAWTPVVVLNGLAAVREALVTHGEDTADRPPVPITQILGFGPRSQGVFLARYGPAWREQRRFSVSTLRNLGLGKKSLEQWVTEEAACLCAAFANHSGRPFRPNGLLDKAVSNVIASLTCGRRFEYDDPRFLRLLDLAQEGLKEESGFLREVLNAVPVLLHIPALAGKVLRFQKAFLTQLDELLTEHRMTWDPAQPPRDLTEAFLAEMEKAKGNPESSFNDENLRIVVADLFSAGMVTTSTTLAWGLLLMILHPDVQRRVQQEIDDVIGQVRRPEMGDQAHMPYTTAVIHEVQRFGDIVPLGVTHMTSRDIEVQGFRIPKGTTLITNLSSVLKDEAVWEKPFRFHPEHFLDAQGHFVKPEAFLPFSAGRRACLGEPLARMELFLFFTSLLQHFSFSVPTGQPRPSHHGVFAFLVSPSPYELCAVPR

CN1CCc2cccc(Cl)c2CC1
AC50 (Cytochrome P450 2D6): 31.6 µM (inconclusive)

NC(=O)CS(=O)(=O)c1nc2ccccc2n1Cc1ccccc1F
EC50 [1]: > 53 µM (inactive)
IC50 [2]: > 47.1 µM (inactive)

Cc1nnc(SC(C(=O)Nc2cc(Cl)cc(Cl)c2)c2ccccc2)nc1O (centres undefined)
EC50 (Streptococcus): > 150 µM (not active)
EC50 [3]: 10.6 µM (active)

FC(F)(F)c1ccccc1-c1nc(NCCN2CCOCC2)c2ccccc2n1
AC50 (Cytochrome P450 2D6): 31.6 µM (inconclusive)

Cc1cc(C(=O)COc2cccc3cccnc23)c(C)n1C
IC50 (cells): 6.66 µM (active)
EC50 [1]: > 53 µM (inactive)

O=C(c1n[nH]c(=O)c2ccccc12)N1CCN(C2c3ccccc3-c3ccccc32)CC1
AC50 (Cytochrome P450 2D6): 31.6 µM (inconclusive)

Cc1cnc(CNc2nc(-c3ccccc3C(F)(F)F)nc3ccccc23)cn1
AC50 (Cytochrome P450 2C19): 39.8 µM (inconclusive)
AC50 (Cytochrome P450 2D6): 25.1 µM (inconclusive)

C[C@@H](C(=O)O)c1ccc(C(=O)c2ccccc2)s1
AC50 (Cytochrome P450 1A2): 0.251 µM (inconclusive)
AC50 (Cytochrome P450 2D6): 7.94 µM (inconclusive)
AC50 (Cytochrome P450 2C9): 15.8 µM (inconclusive)
AC50 (Cytochrome P450 3A4): 12.6 µM (inconclusive)

CCCCCCCCCCCCC(=O)N1CCCC[C@H]1CNC(=O)[C@@H](N)CCCCN
AC50 (Cytochrome P450 1A2): 31.6 µM (inconclusive)
AC50 (Cytochrome P450 2D6): 25.1 µM (inconclusive)
AC50 (Cytochrome P450 2C9): 10 µM (inconclusive)

CCOc1ccc(C2C(C(=O)O)c3ccccc3C(=O)N2CCN2CCOCC2)cc1 (centres undefined)
AC50 (Cytochrome P450 2D6): 25.1 µM (inconclusive)

CCOC(=O)c1nnc(-c2ccccc2)nc1N1CC(C)OC(C)C1 (centres undefined)
EC50 [1]: > 53 µM (inactive)
IC50 [2]: > 47.1 µM (inactive)

O=C(c1cc(C(F)(F)F)cc(C(F)(F)F)c1)N1CCC2(CCCN(c3ncccn3)C2)CC1
AC50 (Cytochrome P450 1A2): 31.6 µM (inconclusive)
AC50 (Cytochrome P450 2C19): 20 µM (inconclusive)
AC50 (Cytochrome P450 2D6): 10 µM (inconclusive)
AC50 (Cytochrome P450 3A4): 15.8 µM (inconclusive)

Fc1ccc(Br)cc1C1C=C(c2ccc(Br)cc2)Nc2ncnn21 (centres undefined)
EC50 [1]: > 53 µM (inactive)

COc1ccc(CNC(=O)CCc2nc3cc(S(=O)(=O)N(C)C)ccc3n2C)cc1OC
EC50 [1]: > 53 µM (inactive)
IC50 [2]: > 47.1 µM (inactive)

Cc1cccc(CNc2ccnc(-c3cccc(C#N)c3)n2)c1
AC50 (Cytochrome P450 2D6): 25.1 µM (inconclusive)
AC50 (Cytochrome P450 2C9): 0.794 µM (inconclusive)

COc1cccc(-c2cncnc2NCc2cccnc2)c1
AC50 (Cytochrome P450 2D6): 20 µM (inconclusive)

COc1ccc(CNC(=O)C(c2ccc(C)o2)N(C(=O)c2snc(C(N)=O)c2N)c2ccccc2OC)cc1 (centres undefined)
AC50 [4]: > 380 µM (inactive)
EC50 (Protein RecA): > 380 µM (inactive)

Clc1ccccc1-c1nc(NCCN2CCOCC2)c2ccccc2n1
AC50 (Cytochrome P450 2C19): 25.1 µM (inconclusive)
AC50 (Cytochrome P450 2D6): 20 µM (inconclusive)

O=C(Oc1ccccc1C(=O)Nc1ccccc1)c1ccccc1Br
AC50 [4]: 7.25 µM (active)
EC50 (Protein RecA): 8.13 µM (active)

CN(C)C(=O)c1ccc(-c2nccc(NCc3cccs3)n2)cc1
AC50 (Cytochrome P450 2C19): 20 µM (inconclusive)
AC50 (Cytochrome P450 2D6): 20 µM (inconclusive)

CCOc1cccc(NC(=O)CSc2nc(C)c3c(c2C#N)CCCC3)c1
AC50 (Cytochrome P450 2C19): 0.178 µM (inconclusive)
AC50 (Cytochrome P450 2D6): 0.0794 µM (inconclusive)

CCCc1n[nH]c2c1C(CCC)C(C#N)=C(N)O2 (centres undefined)
AC50 [4]: 20.5 µM (active)
EC50 (Protein RecA): 7.46 µM (active)

CC(Nc1ccc(Br)cc1)C(=O)Nc1cccc(S(=O)(=O)N2CCOCC2)c1 (centres undefined)
EC50 [1]: > 53 µM (inactive)
IC50 [2]: > 47.1 µM (inactive)

Cc1cc(C)c2c(-n3cccc3)nn(CC#N)c2n1
AC50 (Cytochrome P450 2D6): 10 µM (inconclusive)
AC50 (Cytochrome P450 2C9): 14.1 µM (inconclusive)
AC50 (Cytochrome P450 3A4): 15.8 µM (inconclusive)

O=C(NCCc1ccccc1)c1cnc2ccccc2c1O
EC50 [1]: > 53 µM (inactive)

COc1cc(/C=N\NC(=O)c2ccccc2F)ccc1Oc1ccc([N+](=O)[O-])cn1
AC50 [4]: 133 µM (active)
EC50 (Protein RecA): > 380 µM (inactive)

Cc1cc(-c2ccc(/C=N/n3cnnc3)o2)c([N+](=O)[O-])cc1C
AC50 (Cytochrome P450 2D6): 11.2 µM (inconclusive)

Cc1nnc(N/N=C/c2cccc(OCc3ccc(Cl)c(Cl)c3)c2)n1N
IC50 (cells): 5.42 µM (active)
AC50 [4]: 8.86 µM (active)
EC50 (Protein RecA): 4.81 µM (active)

C/C(=N\NC(=O)CC#N)c1cc2ccccc2oc1=O
AC50 [4]: 3.44 µM (active)
EC50 (Protein RecA): 2.97 µM (active)

O=C(O)[C@@H]1C[C@@H](C(=O)O)N1
AC50 (Cytochrome P450 2D6): 39.8 µM (inconclusive)

N#C/C(=C\c1c[nH]c2ccccc12)C(=O)c1ccc(O)c(O)c1
AC50 (Cytochrome P450 2C19): 31.6 µM (inconclusive)
AC50 (Cytochrome P450 2D6): 25.1 µM (inconclusive)
AC50 (Cytochrome P450 2C9): 31.6 µM (inconclusive)

CCCCCCCCCOc1ccc2[nH]cc(CCN)c2c1
AC50 (Cytochrome P450 2D6): 25.1 µM (inconclusive)
AC50 (Cytochrome P450 2C9): 25.1 µM (inconclusive)
AC50 (Cytochrome P450 3A4): 39.8 µM (inconclusive)
